Here are results for four molecules from patent publication US20220339134A1, “VERY-LONG-CHAIN POLYUNSATURATED FATTY ACIDS, ELOVANOID HYDROXYLATED DERIVATIVES, AND METHODS OF USE” (Board of Supervisors of Louisiana State University and …, priority 2019, published 2022).

The test system of one data set is hypothalamic neurons. In words: Microelectrode array (MEA) recording of organotypic hypothalamic slices. It is filed as cell-based, Leprdb (db/db diabetic) mice. The note with it: 500 nM; db/db male and female mice. On the procedure:
We determined whether ex vivo organotypic culture of hypothalamic slices (200 μm in thickness) obtained from brains of C57BL/6J (WT) mice and age matched Leprdb (db/db diabetic) mice were electrically active and capable of firing trains of action potentials using Maestro microelectrode arrays (MEA) performed with MaestroPro MEA system from Axion Biosystems, GA.
MEA measurements were carried out using a 48-well Microelectrode array (MEA) plate (M768-tMEA-48W) from Axion Biosystems, GA. Each well of the MEA plate, contained a 4×4 grid of […] circular nanoporous PEDOT electrodes embedded in the cell culture substrate, with a pole-to-pole electrode spacing of […]. In preparation for seeding hypothalamic slices, the wells were treated with 0.1% polyethylenimine (PEI) in sodium borate buffer, pH 8.4. Wells were then pre-coated in laminin (6 μg/mL) and the hypothalamic slices (200 μm in thickness) were plated on the electrode grid. […]
Extracellular recordings of spontaneous action potentials were performed in culture medium at 37° C. using the standard neural setting of the MaestroPro MEA system and AxIS software version 1.5.1.12. […] Recorded spike number per electrode were averaged after disregarding noisy electrodes from analysis. […]
Using the MEA system, population level electrical activity was recorded from different hypothalamic neurons. […]

A further data set relates to RPE and PRC. The experiment in a line: Subretinal injection of OAβ in WT mice +/- ELVs (RPE flat mount, OCT, qPCR, Western blot). The note with it: for OAβ-activated senescence program (p16INK4a, MMP1, p53, p21, p27, Il-6, SASP secretome) followed by RPE and PRC demise: summary of mouse and human RPE data. It is filed as in vivo. From the text:
(A) In vivo experimental design: 6-month-old C57BL/6J WT mice were divided into 7 groups (n=12/group): non-injected, PBS, OAβ only, OAβ+ELV-N-32, OAβ+ELV-N-34, ELV-N-32 only and ELV-N-34 only. On day 3, mRNA were isolated for Real-Time PCR. On day 7, mice were subjected to OCT and then eyes enucleated and processed for whole mount RPE staining and Western blots. (B) Whole flat mount of RPE with tight junction marker, Zonula occludens-1 (ZO-1) antibody. OAβ disrupted RPE morphology. (C) OAβ effects on retina and RPE by OCT. (D) Thickness of PRC layer was thinner in OAβ injected group. (E) RPE gene expression after Oaβ (1-42) injection and treatment with ELVs. (E-G) Gene expression in the same functional group were plotted. Senescence- and AMD-related genes (E), and collagenases, gelatinase, stromelysins and others matrix metalloproteinases (MMP) (F) and autophagy (G). (H) p16INK4a, a key marker for senescence, western blots of RPE. (I) Retina apoptosis gene expression after OAβ (1-42) injection and treatment with ELVs. (*P<0.05, student t-test).
ELVs restore RPE morphology and reduce gene expression after subretinal injection of OAβ in WT mice. (A) Mice were divided into 7 groups: non-injected, PBS, OAβ only, OAβ+ELV-N-32, OAβ+ELV-N-34, ELV-N-32 only and ELV-N-34 only. On day 3, mRNA were isolated for RT-PCR. On day 7, mice were subjected to OCT and then eyes were enucleated and processed to whole mount RPE staining and Western blot. (B) Whole flat mount of RPE. OAβ disrupted RPE morphology. However, RPE were less damage in the ELVs treatment group as well as PBS, ELVs alone did non induce changes. (C) Evaluation the OAβ effects on retina and RPE by OCT. (D) The thickness of PRC was thin in the OAβ injected group. OAβ cause the cell death of PRC, as the thinner in OCT measurement. (E) RPE gene expression after OAβ (1-42) injection and treatment with ELVs. 3 days after injection, the RNAs from RPE were isolated, reverse transcribed into cDNA and subjected to RT-PCR with different primers. Genes in the same functional group were plotted in the same chart, including senescence- and AMD-related genes (E), and collagenases, gelatinase, stromelysins and others matrix metalloproteinases (MMP) (F) and autophagy (G). (H) p16INK4a western blots of RPE/Choroid. […] (I) Retina gene expression after OAβ (1-42) injection and treatment with ELVs. OAβ activates apoptosis genes in the retina. […] (*P<0.05, using student t-test comparison).
All animal experiments were performed according to ARVO Statement for the Use of Animals in Ophthalmic and Vision Research, and the protocol was approved by LSU Health New Orleans' Institutional Animal Care and Use Committee (IACUC). 6-month-old 5×FAD mice (stock number: 34848-JAX, The Jackson Laboratory, Bar Harbor, Me., USA), co-overexpress FAD mutant forms of human amyloid precursor protein (the Swedish mutation: K670N, M671L; the Florida mutation: I716V; and the London mutation: V7171) and presenilin 1 (PS1, encoded by Psen1: M146L, L286V) transgenes under transcriptional control of the neuron-specific mouse Thy1 promoter. 5×FAD mice were hemizygotes with respect to the transgenes and non-transgenic WT littermates. Genotyping was performed by PCR of tail DNA. All analyses were carried out blind with respect to the mice genotype. For the subretinal injection, 6-month-old C57BL/6J mice were anesthetized by an intraperitoneal injection of ketamine/xylazine, pupils dilated with 1.0% tropicamide (Akorn, Ill., USA); and 0.5% Proparacaine Hydrochloride (Akorn) was applied for topical anesthesia. Eyes were punctured with a 30-gauge needle between the corneoscleral junction and the ora serrata into the vitreous cavity without disturbing the lens. Compounds were delivered to the subretinal region using a 33-gauge blunt needle attached to a 5p.1 Hamilton syringe (Hamilton Company, Reno, Nev., USA) under a dissecting microscope. Non-injected mice were used as negative control while the PBS injected mice were used for sham. […]
On the technique in general: In qPCR the cycle at which signal appears reflects the starting amount.

The next data set has as its system primary human RPE cells. The experiment in a line: Primary human RPE cells treated with 10 μM OAβ +/- ELVs (SA-β-Gal staining, qPCR). It is filed as cell-based. The note with it: 3 days qPCR, 7 days staining. Here is the method:
(A) In vitro experimental design: Primary human RPE cells were treated with 10 μM OAβ+/−ELVs. After 3 days, RNA was isolated and qPCR analyzed. After 7 days, cells were subjected to β-Galactosidase staining. (B) Live cell images under bright field microscopy after 7 days. (C) β-Gal staining+/−ELVs. Quantitation of % for the β-Gal positive cells. ELVs decreased positive senescent cells. (D) Gene transcription of senescence, AMD-related and autophagy genes after OAβ (1-42) exposure+/−ELVs. (*P <0.05, student t-test).
OAβ toxicity is counteracted by ELVs in primary hRPE. (A) Primary hRPE cells were treated with 10 μM OAβ with or without adding ELVs. After 3 days, the total RNA was isolated and q-PCR analyzed. After 7 days, cells were subjected to β-Galactosidase staining. (B) Live cell images of primary hRPE under bright field microscope imaging after 7 days. (C) β-Galactosidase staining of primary hRPE, +/−ELVs. Quantitation of % for the β-Gal positive cells. ELVs decreased positive senescent cells. […]
Cells were visualized using SA-β-Gal staining kit (Cat 9860, Cell Signaling Technology, MA, USA). […] Pictures were taken under brightfield microscope (Nikon Eclipse TS100) 200× magnification after the development of blue color, and cells counted in 10 different random fields per well. […]

In the next data set the test system is human RPE cells. The experiment in a line: Oxidative-stress and Erastin induced cell death in human RPE cells. It is filed as cell-based.
The next data set has as its system RPE single-cells. In words: UOS-induced transcriptome changes in RPE single-cells. It is filed as cell-based. An excerpt: Dots in box plots represent expression of the gene for a single RPEC (total of 96 per sample). P<0.001 (***), P<0.01 (**), One-way Anova, with Post-Hoc Tukey HSD test for multiple comparisons.
The conditions of data set [1]: methyl ester or sodium salt; administered 1 hour following 2 hours of ischemia; cited from earlier work.
Where [2] appears, read: co-injected with OAβ subretinally, then topical ELV, day 7.

As to `CC/C=C\C[C@H](O)\C=C/C=C/C=C/[C@H](O)C/C=C\C/C=C\CCCCCCCCCCCCCCC(=O)[O-].[Na+]` [ELV-34-6 Na, sodium (16Z,19Z,22R,23E,25E,27Z,29S,31Z)-22,29-dihydroxytetratriaconta-16,19,23,25,27,31-hexaenoate], in the data set with hypothalamic neurons, the “spiking activity of hypothalamic slices (MEA)” value was “synchronous spiking is restored”.

Take `CC/C=C\C[C@H](O)\C=C/C=C/C=C/[C@H](O)C/C=C\C/C=C\CCCCCCCCCCCCC(=O)O` [ELV-N-32]: the “PRC degeneration / ONL after ELV injected alone” value with RPE and PRC (ELV alone, no OAβ, subretinal) is recorded as “did not yield PRC degeneration”. Further, in the data set with RPE and PRC (setting [2]), the “PRC protection (PRC layer, OCT)” value was “protection of PRC” and the “RPE morphology (ZO-1 whole flat mount)” value was “restoration of RPE morphology”. Moreover, the “p16INK4a protein (western blot of RPE/Choroid)” value with RPE and PRC (elevated by OAβ injection, day 7) was “down regulated”. In addition, the “OAβ-activated senescence program (p16INK4a, MMP1, p53, p21, p27, Il-6, SASP secretome) followed by RPE and PRC demise” value (“OAβ-activated senescence program” for short) in the data set on RPE and PRC was “blunt these events and elicit protection to both cells”. Besides, the “OAβ-activated senescence program” value with RPE and PRC (listed as ELV 32) is recorded as “downregulatory mediators of OAβ-evoked senescence”. Moreover, the “OAβ-activated senescence program” value with RPE and PRC (listed as elovanoid 32) is “blunt these events and elicits protection”. Further, the “OAβ effects: RPE cell morphology, SASP (SA-β-Gal), senescence, AMD, MMP and autophagy gene expression” value with primary human RPE cells is on record as “reverted these effects”. For the same molecule, the “oxidative-stress and Erastin induced cell deaths” value in the data set with human RPE cells was “counteracted”. The “UOS-induced up-regulation of pro-inflammatory transcriptome and down-regulation of pro-homeostatic pathways” value in the data set on RPE single-cells is given as “suppress these changes”. Further, in data set [1], the cell survival result was “promoted cell survival”, the infarct volumes result is reported as “reduced infarct volumes” and the neurovascular unit disruption entry is “diminished neurovascular unit disruption”.

On to `CC/C=C\C[C@H](O)\C=C/C=C/C=C/[C@H](O)C/C=C\C/C=C\CCC(=O)O` [NPD1, 10R,17S-dihydroxy-docosa-4Z,7Z,11E,13E,15Z,19Z-hexaenoic acid, reference compound], for which the “oxidative-stress and Erastin induced cell deaths” value in the data set with human RPE cells is recorded as “counteracted”. Further, the “UOS-induced up-regulation of pro-inflammatory transcriptome and down-regulation of pro-homeostatic pathways” value in the data set on RPE single-cells is “suppress these changes”.

As for “OAβ: oligomerized Aβ (1-42) peptide, used as cytotoxic stressor [reference compound]”, in the data set on RPE and PRC (OAβ-injected retina, non-injected retina 105 μm), the “PRC layer thickness (OCT)” value was 35 μm.
